Reference: article PMC8922281, “Synthesis and In Vitro Biological Evaluation of Quinolinyl Pyrimidines Targeting Type II NADH-Dehydrogenase (NDH-2)” (ACS Infectious Diseases, 2022)
In brackets after ≈: the same amount, converted by molar mass. Several values for one entry are separate records, joined by “and”; a condition that tells them apart may be missing. Equal values may be shown once. Read-outs that look alike come from different tables or passages of the source.

Assays:
[1] = tested on: K. pneumonia (ATCC 13833, wild-type); assay: MIC on ESKAPE pathogens, K. pneumoniae
[2] = tested on: E. coli MG1655 ΔtolC resistant mutants; assay: microbe, parasite or virus in culture; type: cell-based; settings: for MIC: Escherichia coli
MtNDH-2 = MtNDH-2 (Mycobacterium tuberculosis, UniProt P95160); assay: biochemical; design: species or system M. tuberculosis; settings: MtNDH-2 IC50
[3] = Cytotoxicity on the MRC-5 cell line (resazurin); type: cell-based; settings: human, MRC-5SV2 cells, MRC-5SV2, 3 days
Procedure: MRC-5SV2 cells were cultured in Earl’s MEM + 5% FCSi. Assays were performed in 96-well microtiter plates, each well containing about 10^4 cells/well. After 3 days of incubation with or without compounds, cell viability was assessed fluorimetrically after the addition of resazurin (λex 550 nm, λem 590 nm). The results were expressed as % reduction in cell growth/viability compared to untreated control wells and CC50 was determined. Testing/retesting strategy was as described above for HepG2 cells.

[4] = tested on: E. coli (D22, lpxC mutant, drug-hypersensitive); assay: microbe, parasite or virus in culture; type: cell-based; settings: Escherichia coli, read-out: MIC Ec D22
[5] = tested on: M. tuberculosis strain H37Rv (ATCC 25618); assay: MIC on M. tuberculosis by resazurin reduction microplate assay (REMA); type: cell-based; settings: Mycobacterium tuberculosis
MsNDH-2 = MsNDH-2 (Mycolicibacterium smegmatis, UniProt A0QYD6); assay: Inhibition of MsNDH-2 (NADH oxidation with menadione, absorbance at 340 nm); type: biochemical, M. smegmatis
[6] = tested on: E. coli (ATCC 25922, wild-type); assay: MIC on ESKAPE pathogens, E. coli wild-type; type: cell-based; settings: Escherichia coli
[7] = tested on: P. aeruginosa (PAO1, wild-type); assay: MIC on ESKAPE pathogens, P. aeruginosa wild-type; type: cell-based; settings: Pseudomonas aeruginosa
[8] = tested on: A. baumannii (ATCC 19606, wild-type); assay: MIC on ESKAPE pathogens, A. baumannii; type: cell-based; settings: Acinetobacter baumannii, ATCC19606; A. baumannii ATCC 19606, wild-type; read-out: MIC Ab WT
[9] = tested on: E. coli (ΔtolC efflux-defective mutant, isogenic to ATCC 25922); assay: microbe, parasite or virus in culture; type: cell-based; settings: Escherichia coli, ATCC25922, read-out: MIC Ec ΔtolC
[10] = tested on: S. aureus (ATCC 29213, wild-type); assay: MIC on ESKAPE pathogens, S. aureus; type: cell-based; settings: Staphylococcus aureus, ATCC29213
[11] = tested on: P. aeruginosa (PAO750 efflux-defective mutant, isogenic to PAO1); assay: microbe, parasite or virus in culture; type: cell-based; settings: Pseudomonas aeruginosa, PAO1, read-out: MIC Pa efflux
[12] = tested on: P. aeruginosa PAO1 resistant mutants; assay: microbe, parasite or virus in culture; type: cell-based
HepG2 cells = settings: human, 72 h
[13] = M. tuberculosis H37Rv, read-out: MIC Mtb
[14] = 95% confidence interval in parentheses, 50 nM enzyme, 50 μM menadione, >100: no significant inhibition at 100 μM
[15] = same IC50 given in μg/mL to assist comparisons with MICs
[16] = ATCC25922, E. coli ATCC 25922, wild-type, read-out: MIC Ec WT
[17] = PAO1, P. aeruginosa PAO1, wild-type, read-out: MIC Pa WT

Sequence of MsNDH-2 (A0QYD6 1-457): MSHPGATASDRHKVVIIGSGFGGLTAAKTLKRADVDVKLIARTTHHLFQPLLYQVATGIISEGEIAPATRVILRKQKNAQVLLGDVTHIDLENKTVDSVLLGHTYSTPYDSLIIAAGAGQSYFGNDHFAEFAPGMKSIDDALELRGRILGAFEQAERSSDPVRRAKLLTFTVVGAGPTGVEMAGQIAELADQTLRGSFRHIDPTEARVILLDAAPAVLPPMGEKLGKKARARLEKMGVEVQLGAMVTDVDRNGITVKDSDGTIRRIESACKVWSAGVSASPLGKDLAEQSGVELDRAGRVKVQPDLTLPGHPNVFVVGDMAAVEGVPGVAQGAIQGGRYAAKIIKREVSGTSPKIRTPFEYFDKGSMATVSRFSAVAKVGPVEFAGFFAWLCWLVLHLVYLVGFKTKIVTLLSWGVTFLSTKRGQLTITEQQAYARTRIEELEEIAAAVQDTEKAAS
Sequence of MtNDH-2 (P95160 2-463, added parts left off): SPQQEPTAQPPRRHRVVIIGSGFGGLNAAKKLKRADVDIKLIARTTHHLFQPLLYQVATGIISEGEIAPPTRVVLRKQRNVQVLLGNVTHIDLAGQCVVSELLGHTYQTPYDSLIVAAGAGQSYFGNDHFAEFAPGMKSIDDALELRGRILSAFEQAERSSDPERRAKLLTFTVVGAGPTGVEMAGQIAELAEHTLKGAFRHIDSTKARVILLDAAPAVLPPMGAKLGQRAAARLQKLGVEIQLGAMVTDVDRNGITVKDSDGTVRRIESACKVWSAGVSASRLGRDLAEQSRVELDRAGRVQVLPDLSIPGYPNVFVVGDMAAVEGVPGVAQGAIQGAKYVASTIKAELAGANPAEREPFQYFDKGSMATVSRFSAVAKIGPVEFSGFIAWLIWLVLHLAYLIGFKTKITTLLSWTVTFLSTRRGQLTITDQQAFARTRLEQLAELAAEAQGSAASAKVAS

SMILES | MIC Kp WT [1] | IC50 (MtNDH-2) | IC50 at 3 days ([3]; resazurin) | IC50 at 3 days ([3]; value in parentheses) | MIC [4] | MIC [5, 13] | IC50 (MsNDH-2; [14]) | IC50 (MsNDH-2; [15]) | MIC [8] | MIC [9] | MIC [10] | MIC [11] | MIC [6, 16] | MIC [7, 17] | also measured
CC(C)(C)OC(=O)NCC1CCN(c2cc(Nc3ccc4nc(-c5ccc(F)cc5)cc(N)c4c3)nc(N)n2)CC1 [Compound 8g, tert-Butyl ((1-(2-Amino-6-((4-amino-2-(4-fluorophenyl)quinolin-6-yl)amino)pyrimidin-4-yl)piperidin-4-yl)methyl)carbamate] | 128 µg/mL (≈ 229 µM) | 0.29 µM and 0.286 µM | 1.4 µM | 0.8 µg/mL | 4 µg/mL (≈ 7.16 µM) | 6.8 µg/mL | 0.58 µM | 0.537 µM | 4 µg/mL (≈ 7.16 µM) | 4 µg/mL (≈ 7.16 µM) | 4 µg/mL (≈ 7.16 µM) | 128 µg/mL (≈ 229 µM) | – | – | MIC ([2]; MG1655, read-out: MIC mutant, mutant CH5053 raised against 8g, ackA Leu255Arg): 16 µg/mL (≈ 28.6 µM); MIC ([2]; MG1655, read-out: MIC mutant, mutant CH5054 raised against 8g, ackA Glu375 stop codon): 16 µg/mL (≈ 28.6 µM); MIC ([2]; MG1655, read-out: MIC mutant, mutant CH5055 raised against 8g, ackA Thr233Pro): 16 µg/mL (≈ 28.6 µM); MIC ([2]; MG1655, read-out: MIC mutant, mutant CH5056 raised against 8g, ackA Gly275Asp): 16 µg/mL (≈ 28.6 µM); MIC ([2]; MG1655, read-out: MIC mutant, mutant CH5057 raised against 8g, eno Pro38Leu): 8 µg/mL (≈ 14.3 µM); MIC ([2]; MG1655, read-out: MIC mutant, mutant CH5058 raised against 8g, ackA Ile92fs): 16 µg/mL (≈ 28.6 µM); MIC ([2]; MG1655, read-out: MIC mutant, mutant CH5059 raised against 8g, ackA Arg91Ser): 16 µg/mL (≈ 28.6 µM); MIC ([2]; MG1655, read-out: MIC mutant, mutant CH5062 raised against 8g, ackA Gly241Asp): 16 µg/mL (≈ 28.6 µM); MIC ([2]; MG1655, read-out: MIC mutant, mutant CH5063 raised against 8g, ackA Arg91Leu): 16 µg/mL (≈ 28.6 µM); fold increase of MIC ([2]; mutant CH5053 vs parent E. coli MG1655 ΔtolC): 4; fold increase of MIC ([2]; mutant CH5054 vs parent E. coli MG1655 ΔtolC): 4; fold increase of MIC ([2]; mutant CH5055 vs parent E. coli MG1655 ΔtolC): 4; fold increase of MIC ([2]; mutant CH5056 vs parent E. coli MG1655 ΔtolC): 4; fold increase of MIC ([2]; mutant CH5057 vs parent E. coli MG1655 ΔtolC): 2; fold increase of MIC ([2]; mutant CH5058 vs parent E. coli MG1655 ΔtolC): 4; fold increase of MIC ([2]; mutant CH5059 vs parent E. coli MG1655 ΔtolC): 4; fold increase of MIC ([2]; mutant CH5062 vs parent E. coli MG1655 ΔtolC): 4; fold increase of MIC ([2]; mutant CH5063 vs parent E. coli MG1655 ΔtolC): 4; MIC ([6]; ATCC25922, read-out: MIC Ec WT): > 128 µg/mL; MIC ([7]; PAO1, read-out: MIC Pa WT): > 128 µg/mL
Nc1nc(Nc2ccc3nc(-c4ccc(F)cc4)cc(N)c3c2)cc(N2CCC(N)CC2)n1 [Compound 8j, N^6-(2-Amino-6-(4-aminopiperidin-1-yl)pyrimidin-4-yl)-2-(4-fluorophenyl)quinoline-4,6-diamine] | >128 µg/mL | 6.1 µM and 6.07 µM | 22 µM | 9.8 µg/mL | 8 µg/mL (≈ 18 µM) | 44.5 µg/mL | 21 µM | 21.4 µM | 128 µg/mL (≈ 288 µM) | 16 µg/mL (≈ 36 µM) | 32 µg/mL (≈ 72 µM) | 8 µg/mL (≈ 18 µM) | 64 µg/mL (≈ 144 µM) | 4 µg/mL (≈ 9 µM) | MIC ([12]; Pseudomonas aeruginosa, PAO1, read-out: MIC mutant): 32 µg/mL (≈ 72 µM); fold increase of MIC ([12]; mutant CH5071 vs parent P. aeruginosa PAO1): 8; MIC mutant ([12]; mutant CH5072 raised against 8j, phoQ Leu158fs): 32 µg/mL (≈ 72 µM); fold increase of MIC ([12]; mutant CH5072 vs parent P. aeruginosa PAO1): 8; MIC mutant ([12]; mutant CH5073 raised against 8j, basS (pmrB) Ser257Asn): 32 µg/mL (≈ 72 µM); fold increase of MIC ([12]; mutant CH5073 vs parent P. aeruginosa PAO1): 8; MIC mutant ([12]; mutant CH5075 raised against 8j, basS (pmrB) Ala29Glu): 32 µg/mL (≈ 72 µM); fold increase of MIC ([12]; mutant CH5075 vs parent P. aeruginosa PAO1): 8; MIC mutant ([12]; mutant CH5077 raised against 8j, phoQ Ser151 stop codon): 32 µg/mL (≈ 72 µM); fold increase of MIC ([12]; mutant CH5077 vs parent P. aeruginosa PAO1): 8
CNCCN(C)c1cc(Nc2ccc3nc(-c4ccc(F)cc4)cc(N)c3c2)nc(N)n1 [Compound 8m, N^4-(4-Amino-2-(4-fluorophenyl)quinolin-6-yl)-N^6-methyl-N^6-(2-(methylamino)ethyl)pyrimidine-2,4,6-triamine] | >64 µg/mL | 16 µM | 7.6 µM | 3.3 µg/mL | 32 µg/mL (≈ 74 µM) | 21.6 µg/mL | 19 µM | 18.5 µM | > 64 µg/mL | 32 µg/mL (≈ 74 µM) | > 64 µg/mL | 16 µg/mL (≈ 37 µM) | > 64 µg/mL | 32 µg/mL (≈ 74 µM) | –
CCOc1cc(Nc2ccc3nc(-c4ccc(F)cc4)cc(N)c3c2)nc(N)n1 [Compound 9a, N^6-(2-Amino-6-ethoxypyrimidin-4-yl)-2-(4-fluorophenyl)quinoline-4,6-diamine] | 64 µg/mL (≈ 164 µM) | 0.9 µM and 0.896 µM | 1.6 µM | 0.6 µg/mL | 4 µg/mL (≈ 10.2 µM) | 3.4 µg/mL | 5.3 µM | 5.38 µM | 2 µg/mL (≈ 5.12 µM) | 2 µg/mL (≈ 5.12 µM) | 2 µg/mL (≈ 5.12 µM) | 16 µg/mL (≈ 41 µM) | 64 µg/mL (≈ 164 µM) | > 128 µg/mL | –
Nc1nc(Nc2ccc3nc(-c4ccc(F)cc4)cc(N)c3c2)cc(OCCO)n1 [Compound 9b, 2-((2-Amino-6-((4-amino-2-(4-fluorophenyl)quinolin-6-yl)amino)pyrimidin-4-yl)oxy)ethan-1-ol] | 32 µg/mL (≈ 78.7 µM) | 2.5 µM and 2.46 µM | 8 µM | 3.3 µg/mL | 16 µg/mL (≈ 39.4 µM) | 9.8 µg/mL | 13 µM | 12.8 µM | 32 µg/mL (≈ 78.7 µM) | 8 µg/mL (≈ 19.7 µM) | 16 µg/mL (≈ 39.4 µM) | 32 µg/mL (≈ 78.7 µM) | 32 µg/mL (≈ 78.7 µM) | ≥ 64 µg/mL | –
Nc1cc(-c2ccc(F)cc2)nc2ccc(Nc3cc(N4CCNCC4)ncn3)cc12 [Compound 15, 2-(4-Fluorophenyl)-N^6-(6-(piperazin-1-yl)pyrimidin-4-yl)quinoline-4,6-diamine] | >64 µg/mL | 6 µM and 6.02 µM | 1.7 µM | 0.7 µg/mL | 16 µg/mL (≈ 38.5 µM) | > 42 µg/mL | 23 µM | 20.9 µM | > 64 µg/mL | 16 µg/mL (≈ 38.5 µM) | > 64 µg/mL | 8 µg/mL (≈ 19.3 µM) | > 64 µg/mL | 32 µg/mL (≈ 77 µM) | –
CO[C@H]1/C=C/O[C@@]2(C)Oc3c(C)c(O)c4c(O)c(c(/C=N/N5CCN(C)CC5)c(O)c4c3C2=O)NC(=O)/C(C)=C\C=C\[C@H](C)[C@H](O)[C@@H](C)[C@@H](O)[C@@H](C)[C@H](OC(C)=O)[C@@H]1C [Rifampicin, reference compound] | – | – | – | – | – | – | – | – | – | – | – | – | – | – | MIC ([5]; H37Rv, reference antitubercular agents, read-out: MIC M. tuberculosis): 0.3 nM; cytotoxicity HepG2 TD50 (HepG2 cells): 75 µM; cytotoxicity HepG2 TD99 (HepG2 cells): ≥ 100 µM
